11 compounds from patent US12606571B2, “Macrocyclic compounds and uses thereof” (TURNING POINT THERAPEUTICS, INC., priority 2017, dated 2026) can be followed below.

Structures are written as SMILES. Where two headings read alike, the source gives them in different places.

Experiment [1] has as its system HCC827 cells. Put plainly: HCC827 cell proliferation assay, single agents and combinations. The format is cell-based, human.
The subject of another experiment is SNU-5 cells. As to the kind of experiment: MET cell proliferation assay, SNU-5 (CellTiter-Glo). The format is cell-based. The note with it: Homo sapiens, 72 hours treatment. The method, then:
(§1) Two thousand cells per well were seeded in 384 well white plate for 24 hrs, and then treated with compounds for 72 hours (37° C., 5% CO2). Cell proliferation was measured using CellTiter-Glo luciferase-based ATP detection assay (Promega) following the manufacturer's protocol. IC50 determinations were performed using GraphPad Prism software (GraphPad, Inc., San Diego, CA).
(§2) The anti-cell proliferation activities against MET and CSF1R driven cell lines were conducted with MKN-45, SNU-5, Ba/F3 TEL-CSF1R cells, and M-NFS-60 respectively.

The subject of experiment [2] is MKN-45 cells. As to the kind of experiment: MET cell proliferation assay, MKN-45 (CellTiter-Glo). The format is cell-based. The following applies: Homo sapiens, 72 hours treatment. The method, then: as §1, §2
(In general: In ATP-based viability assays light output follows the ATP content of the culture.)

In the next experiment the target is T1, MET (Homo sapiens, UniProt P08581).
T1 construct: purchased Reaction Biology Corporation (assay service; enzyme from the CRO's panel)
T1 sequence (P08581 25-1390): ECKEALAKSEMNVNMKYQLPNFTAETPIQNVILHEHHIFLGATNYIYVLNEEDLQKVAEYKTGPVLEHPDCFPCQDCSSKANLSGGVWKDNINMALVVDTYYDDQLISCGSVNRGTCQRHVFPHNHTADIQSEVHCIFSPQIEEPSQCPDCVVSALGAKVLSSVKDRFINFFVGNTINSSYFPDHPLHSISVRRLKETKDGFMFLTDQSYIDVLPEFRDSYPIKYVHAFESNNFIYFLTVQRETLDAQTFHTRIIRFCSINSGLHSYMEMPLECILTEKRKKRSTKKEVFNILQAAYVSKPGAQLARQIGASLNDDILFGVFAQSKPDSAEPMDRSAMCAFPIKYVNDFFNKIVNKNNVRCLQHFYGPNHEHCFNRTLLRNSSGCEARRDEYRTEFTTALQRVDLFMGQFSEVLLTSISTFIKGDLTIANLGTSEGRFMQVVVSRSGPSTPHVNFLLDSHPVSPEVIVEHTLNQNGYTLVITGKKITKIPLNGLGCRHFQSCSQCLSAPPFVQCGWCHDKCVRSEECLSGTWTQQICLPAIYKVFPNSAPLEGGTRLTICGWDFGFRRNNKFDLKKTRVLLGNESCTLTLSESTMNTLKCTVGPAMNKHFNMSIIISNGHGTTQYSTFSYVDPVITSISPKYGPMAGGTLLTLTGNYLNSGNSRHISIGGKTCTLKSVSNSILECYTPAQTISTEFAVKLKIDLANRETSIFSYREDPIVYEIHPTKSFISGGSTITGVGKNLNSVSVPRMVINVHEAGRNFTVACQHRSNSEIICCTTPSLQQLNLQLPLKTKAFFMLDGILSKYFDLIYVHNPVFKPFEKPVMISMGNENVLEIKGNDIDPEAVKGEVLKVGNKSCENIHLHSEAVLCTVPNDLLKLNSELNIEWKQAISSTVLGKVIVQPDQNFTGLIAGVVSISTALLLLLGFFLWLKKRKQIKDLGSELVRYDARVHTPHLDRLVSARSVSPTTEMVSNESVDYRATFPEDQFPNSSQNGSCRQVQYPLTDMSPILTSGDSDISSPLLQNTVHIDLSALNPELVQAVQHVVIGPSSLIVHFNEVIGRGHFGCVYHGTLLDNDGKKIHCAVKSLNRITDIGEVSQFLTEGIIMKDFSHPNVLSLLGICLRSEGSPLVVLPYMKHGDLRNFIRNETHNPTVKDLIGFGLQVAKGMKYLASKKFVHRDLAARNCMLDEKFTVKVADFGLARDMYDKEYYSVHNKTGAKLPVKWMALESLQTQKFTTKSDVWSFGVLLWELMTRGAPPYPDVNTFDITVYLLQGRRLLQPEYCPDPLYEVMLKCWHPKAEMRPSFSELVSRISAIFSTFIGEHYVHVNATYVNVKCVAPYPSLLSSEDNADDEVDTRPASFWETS
Put plainly: Biochemical kinase assay (Reaction Biology), MET. The following applies: 10 μM ATP; read-out: Enzymatic Kinase MET IC50. How it is done:
(§3) Specific kinase/substrate pairs along with required cofactors were prepared in reaction buffer; 20 mM Hepes pH 7.5, 10 mM MgCl2,1 mM EGTA, 0.02% Brij35, 0.02 mg/ml BSA, 0.1 mM Na3VO4, 2 mM DTT, 1% DMSO (for specific details of individual kinase reaction components see Supplementary Table 2). Compounds were delivered into the reaction, followed ˜20 minutes later by addition of a mixture of ATP (Sigma, St. Louis MO) and ^33P ATP (Perkin Elmer, Waltham MA) to a final concentration of 10 μM. Reactions were carried out at room temperature for 120 min, followed by spotting of the reactions onto P81 ion exchange filter paper (Whatman Inc., Piscataway, NJ). […] IC50 values and curve fits were obtained using Prism (GraphPad Software).
(§4) The enzymatic kinase inhibition activities at 10 μM ATP concentration were determined at Reaction Biology.

A further experiment has as its target T2, SRC (Homo sapiens, UniProt P12931).
T2 construct: purchased Reaction Biology Corporation (assay service; enzyme from the CRO's panel)
Put plainly: Biochemical kinase assay (Reaction Biology), SRC. The note with it: 10 μM ATP; read-out: Enzymatic Kinase SRC IC50. The method, then:
as §3, with “The biochemical kinase assay was performed at Reaction Biology Corporation (www.reactionbiology.com, Malvern, PA) following the procedures described in the reference (Anastassiadis T, et al Nat Biotechnol. 2011, 29, 1039). Specific” for “Specific”, “NJ). Unbound phosphate was removed by extensive washing of filters in 0.75% phosphoric acid.” for “NJ).”
as §4

The target of the next experiment is T3, c-FMS (CSF1R) (Homo sapiens, UniProt P07333).
T3 construct: purchased Reaction Biology Corporation (assay service; enzyme from the CRO's panel)
T3 sequence (P07333 20-972): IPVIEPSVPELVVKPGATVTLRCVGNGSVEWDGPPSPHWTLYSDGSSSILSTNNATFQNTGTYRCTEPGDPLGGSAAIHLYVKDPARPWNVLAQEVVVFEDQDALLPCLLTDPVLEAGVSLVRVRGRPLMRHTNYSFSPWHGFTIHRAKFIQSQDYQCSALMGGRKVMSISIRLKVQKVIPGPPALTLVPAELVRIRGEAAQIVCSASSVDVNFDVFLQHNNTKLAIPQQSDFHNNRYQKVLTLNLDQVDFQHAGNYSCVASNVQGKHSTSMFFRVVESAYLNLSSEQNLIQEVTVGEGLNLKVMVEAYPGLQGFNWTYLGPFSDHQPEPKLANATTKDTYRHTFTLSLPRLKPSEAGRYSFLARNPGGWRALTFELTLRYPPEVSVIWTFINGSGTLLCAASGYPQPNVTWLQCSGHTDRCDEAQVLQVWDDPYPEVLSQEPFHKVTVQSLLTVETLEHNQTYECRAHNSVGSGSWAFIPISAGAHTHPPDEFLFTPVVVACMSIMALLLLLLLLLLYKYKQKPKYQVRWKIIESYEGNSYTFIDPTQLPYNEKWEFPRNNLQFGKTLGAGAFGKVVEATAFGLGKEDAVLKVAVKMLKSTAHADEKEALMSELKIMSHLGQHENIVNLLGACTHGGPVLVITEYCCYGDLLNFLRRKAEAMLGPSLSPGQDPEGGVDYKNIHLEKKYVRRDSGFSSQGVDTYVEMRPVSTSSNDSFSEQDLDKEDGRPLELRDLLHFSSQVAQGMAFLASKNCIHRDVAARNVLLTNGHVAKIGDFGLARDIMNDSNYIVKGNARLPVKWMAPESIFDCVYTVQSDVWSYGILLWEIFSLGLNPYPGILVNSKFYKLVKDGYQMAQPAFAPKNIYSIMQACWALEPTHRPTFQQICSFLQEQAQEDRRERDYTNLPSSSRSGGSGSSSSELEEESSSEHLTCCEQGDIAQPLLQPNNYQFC
Put plainly: Biochemical kinase assay (Reaction Biology), c-FMS (CSF1R). The following applies: 10 μM ATP; read-out: Enzymatic Kinase c-FMS (CSF1R) IC50. The method, then:
as §3, §4

Another experiment concerns M-NFS-60 cells. Put plainly: M-NFS-60 cell proliferation at varied CSF-1. The note with it: Mus musculus, read-out: M-NFS-60 IC50. The format is cell-based. The method, then: as §1, §2
For experiment [3], the system named is HCC827 cells. Put plainly: Scratch wound healing assay, HCC827. The format is cell-based, human. The following applies: 36-48 hours treatment. The method, then:
(§5) MKN-45 or HCC827 cells were seeded in 24-well plate. After 12-24 hours, confluent cell monolayers were gently scraped with a sterile pipette tip to form a scratch. The plates were washed with fresh medium, and the cells were incubated with medium alone or medium containing various concentration of compounds. After 36-48 hours, the plates were examined and recorded by an EVOS FL microscopy (Life Technology) to monitor rescaling of the cell monolayer.

The subject of experiment [4] is MKN-45 cells. Put plainly: Scratch wound healing assay, MKN-45. The format is cell-based. The note with it: 36-48 hours treatment. The method, then:
as §5

T2 sequence (P12931 whole entry): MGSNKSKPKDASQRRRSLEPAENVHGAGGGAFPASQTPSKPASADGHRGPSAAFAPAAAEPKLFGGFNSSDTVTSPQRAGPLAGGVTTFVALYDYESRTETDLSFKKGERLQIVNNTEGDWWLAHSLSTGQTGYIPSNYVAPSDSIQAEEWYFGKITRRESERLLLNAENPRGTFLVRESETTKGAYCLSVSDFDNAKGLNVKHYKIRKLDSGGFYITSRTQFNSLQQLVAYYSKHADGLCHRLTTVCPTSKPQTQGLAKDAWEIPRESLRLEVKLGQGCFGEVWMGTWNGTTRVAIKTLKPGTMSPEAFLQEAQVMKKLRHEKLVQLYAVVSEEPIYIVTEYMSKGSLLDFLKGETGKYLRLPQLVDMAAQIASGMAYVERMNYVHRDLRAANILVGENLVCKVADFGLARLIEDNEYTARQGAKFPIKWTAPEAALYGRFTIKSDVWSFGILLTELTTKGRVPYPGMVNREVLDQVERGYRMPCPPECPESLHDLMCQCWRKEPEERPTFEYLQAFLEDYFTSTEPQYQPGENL

With `C=CC(=O)Nc1cc(Nc2nccc(-c3cn(C)c4ccccc34)n2)c(OC)cc1N(C)CCN(C)C` [AZD9291], the Emax in the experiment on HCC827 cells [1] (Homo sapiens, HCC827, read-out: HCC827 cell proliferation Emax (maximum inhibition)) amounted to 47%. Moreover, in the experiment with HCC827 cells [1] (Homo sapiens, HCC827, read-out: HCC827 cell proliferation IC50), the IC50 was determined as 5 nM.

As to `CCN1Cc2c(ccc(F)c2Cl)O[C@@H](C)CNC(=O)c2c(N)nn3ccc1nc23` [Compound 1, (7S)-3-amino-12-chloro-14-ethyl-11-fluoro-7-methyl-6,7,13,14-tetrahydro-1,15-ethenopyrazolo[4,3-f][1,4,8,10]benzoxatriazacyclotridecin-4(5H)-one], the IC50 in the experiment with SNU-5 cells turned out to be 174 nM; in the experiment with MKN-45 cells [2], 193 nM; on MET it was 20.4 nM.

As to `CCN1Cc2c(C#N)cccc2O[C@@H](C)CNC(=O)c2cnn3ccc1nc23` [Compound 2, (7S)-14-ethyl-7-methyl-4-oxo-4,5,6.7,13,14-hexahydro-1,15-ethenopyrazolo[4,3-f][1,4,8,10]benzoxatriazacyclotridecine-12-carbonitrile], the IC50 in the experiment with SNU-5 cells was 136 nM; on SRC, 3 nM; in the experiment on MKN-45 cells [2] it was 129 nM; at MET it was 36.5 nM.

On to `CCN1Cc2c(C#N)cccc2OCCNC(=O)c2cnn3ccc1nc23` [Compound 3, 14-ethyl-4-oxo-4,5,6,7,13,14-hexahydro-1,15-ethenopyrazolo[4,3-f][1,4,8,10]benzoxatriazacyclotridecine-12-carbonitrile], for which the IC50 with SNU-5 cells was found to be 674 nM; on SRC it was 97.1 nM; with MKN-45 cells [2], 471 nM; at MET, 110 nM.

As for `CCN1Cc2c(ccc(F)c2C#N)O[C@@H](C)CNC(=O)c2cnn3ccc1nc23` [Compound 4, (7S)-14-ethyl-11-fluoro-7-methyl-4-oxo-4,5,6,7,13,14-hexahydro-1,15-ethenopyrazolo[4,3-f][1,4,8,10]benzoxatriazacyclotridecine-12-carbonitrile], the IC50 in the experiment with SNU-5 cells amounted to 5.8 nM; on SRC, 0.49 nM; with MKN-45 cells [2], 12 nM; on c-FMS (CSF1R), 0.42 nM; on MET, 1.85 nM.

As for `CCN1Cc2c(C#N)cccc2O[C@@H](C)CNC(=O)c2c(N)nn3ccc1nc23` [Compound 6, (7S)-3-amino-14-ethyl-7-methyl-4-oxo-4,5,6,7,13,14-hexahydro-1,15-ethenopyrazolo[4,3-f][1,4,8,10]benzoxatriazacyclotridecine-12-carbonitrile], the IC50 in the experiment on SNU-5 cells came to 36.8 nM; at SRC, 13.6 nM; with MKN-45 cells [2] it was 58.3 nM; at MET it was 9.7 nM.

For `C[C@H]1CNC(=O)c2c(N)nn3ccc(nc23)N(CC2CC2)Cc2c(ccc(F)c2C#N)O1` [Compound 7, (7S)-3-amino-14-(cyclopropylmethyl)-11-fluoro-7-methyl-4-oxo-4,5,6,7,13,14-hexahydro-1,15-ethenopyrazolo[4,3-f][1,4,8,10]benzoxatriazacyclotridecine-12-carbonitrile], the IC50 in the experiment with SNU-5 cells turned out to be 1 nM; at SRC it was 0.7 nM; in the experiment on MKN-45 cells [2], 17.7 nM; on MET, 2.2 nM.

As for `CC(C)N1Cc2c(ccc(F)c2C#N)O[C@@H](C)CNC(=O)c2c(N)nn3ccc1nc23` [Compound 8, (7S)-3-amino-11-fluoro-7-methyl-4-oxo-14-(propan-2-yl)-4,5,6,7,13,14-hexahydro-1,15-ethenopyrazolo[4,3-f][1,4,8,10]benzoxatriazacyclotridecine-12-carbonitrile], the IC50 in the experiment on SNU-5 cells turned out to be 1 nM; on SRC, 0.83 nM; with MKN-45 cells [2], 1 nM; on MET, 3.8 nM.

`C[C@H]1CNC(=O)c2c(N)nn3ccc(nc23)NCc2c(ccc(F)c2C#N)O1` [Compound 9, (7S)-3-amino-11-fluoro-7-methyl-4-oxo-4,5,6,7,13,14-hexahydro-1,15-ethenopyrazolo[4,3-f][1,4,8,10]benzoxatriazacyclotridecine-12-carbonitrile] showed an IC50 with MKN-45 cells [2] of 297 nM.

As for `FC(F)(F)c1ccc(CNc2ccc(Cc3c[nH]c4ncc(Cl)cc34)cn2)cn1` [Pexidartinib, reference compound], the IC50 with M-NFS-60 cells (CSF-1 0 ng/mL) was less than 0.1 nM; in the experiment on M-NFS-60 cells (CSF-1 0.3 ng/mL), 2 nM; in the experiment with M-NFS-60 cells (CSF-1 1 ng/mL), 146 nM; in the experiment with M-NFS-60 cells (CSF-1 3 ng/mL), 212 nM; with M-NFS-60 cells (CSF-1 10 ng/mL) it was 380 nM; in the experiment with M-NFS-60 cells (CSF-1 30 ng/mL), 595 nM. In addition, the IC50 in the experiment with M-NFS-60 cells (CSF-1 100 ng/mL) was found to be 702 nM.

As for `CNC(=O)c1ccc(-c2cnc3ncc(Cc4ccc5ncccc5c4)n3n2)cc1F` [capmatinib], the “cell migration of HCC827 cells, wound healing” value with HCC827 cells [3] is reported as “minimum effect”; in the experiment on HCC827 cells [3] (listed as campmatinib), “minimal effect”. Besides, in the experiment on HCC827 cells [1] (Homo sapiens, HCC827, combination partner at 1 μM where combined, AZD9291 curves partial, read-out: HCC827 cell proliferation IC50), the IC50 is more than 10000 nM. The “HCC827 cell proliferation IC50” value with HCC827 cells [1] (combination partner at 1 μM where combined, AZD9291 curves partial) was “not active”. Besides, the “cell migration of MKN-45 cells, wound healing” value in the experiment on MKN-45 cells [4] was “inhibited”.
